Laboratory results taken from PubChem BioAssay AID2202556 (NIEHS Division of Translational Toxicology (DTT)).
Records with an inconclusive call do not appear. Calls of active or inactive are those of the source. How the calls were made is not given here.

The compounds below were run on in vivo alkaline comet assay, DNA damage, mouse/rat (assay: In vivo alkaline comet assay, summary data).
Excerpt: The comet assay examines the ability of substances to cause DNA damage in cells from a variety of different tissues, such as liver, stomach, lung, or brain.
There are multiple forms of DNA damage, including DNA adducts (addition of a chemical structure to a DNA base), oxidative damage to DNA, and breaks in one or both strands. The comet assay can detect single and double strand breaks, DNA adducts, and DNA crosslinks, as well as breaks along the DNA strand that are produced during the normal processes of DNA repair or replication. Thus, the comet assay provides a snapshot of the balance between DNA damage and DNA repair at the time the tissue was harvested.
The DNA damage detected by the comet assay can resolve in several ways. The damage is most often rapidly and correctly repaired. Alternately, a cell that sustains DNA damage may die without passing the damage on to daughter cells following cell division. However, if the damage is not repaired or is repaired incorrectly, the daughter cells may inherit the damage as mutations or chromosome breaks, which are found in many human diseases including cancer. The outcome of the detected DNA damage is unknown.
The comet assay provides the advantage of being able to look at chemical effects on DNA in tissues other than bone marrow, which is the main source of cells used to examine chemical-induced chromosome damage and mutation induction in animals (see Micronucleus Assay).
Animals (rats or mice) are treated with a test substance once or multiple times, and DNA damage is usually evaluated 3-6 hours after the final treatment.
The animal tissue is rapidly minced in a buffer solution, combined with agarose, and layered onto slides. The slides are placed in a solution that removes the cellular and nuclear membranes and cellular proteins, leaving behind the nuclear DNA. The slides are then incubated in an alkaline solution (pH > 13) to convert alkali-labile sites into strand breaks and allow the DNA to unwind. Next, the slides are subjected to an electrical field in a tank filled with a buffer solution. Broken DNA, having a negative charge, migrates out of the area of the nucleus toward the positively charged anode. This forms a comet-like shape with the nucleus at the "head" and the migrated DNA as the "tail." All steps of the method are performed using ice-cold solutions and buffers. After this process, the DNA is stained with a fluorescent dye and cells are analyzed using Comet Assay IV Imaging Software.
For each cell, DNA migration is analyzed using an automated software system attached to a microscope. The extent of damage is characterized as the percent tail DNA (how much DNA migrated to the tail, compared to the total DNA as a percentage). At least 100 cells per sample are evaluated; current guidelines for the assay recommend analysis of at least 150 cells per sample. The data is statistically analyzed to determine if there is a significant increase in percent tail DNA in chemical-exposed animals compared to the controls (animals not exposed).
Dose-related responses, as well as significant dose groups, are considered during the evaluation of the data. For a positive test, both a dose response and at least one significant dose group are required. If only one of these measures is present, the test is considered to be equivocal. The absence of either condition results in a negative test. The final conclusions for comet assays are determined by considering the results of statistical analyses, reproducibility of any observed effects, and the magnitude of the effects. Ultimately, both biological and statistical significance are considered when reaching a final conclusion.
For more details, please refer to the original protocol: https://ntp.niehs.nih.gov/research/apptoxres/genetic and publication: https://www.ncbi.nlm.nih.gov/pubmed/26212309
With `ClCC1CO1` (centres undefined) the outcome was “active; positive”.
With `NC(=O)CC(N)=O` the outcome was “active; positive”.
In the case of `C=CC1(C)OC(=O)N(c2cc(Cl)cc(Cl)c2)C1=O` (centres undefined), the outcome is reported as “active; positive”.
With `CCOS(C)(=O)=O` the outcome was “active”.
In the case of `CCNC(=O)CC(C)=O`, the outcome is reported as “active; positive”.
In the case of `CNNC`, the outcome is reported as “active”.
`Nc1nc(=O)n([C@@H]2CS[C@H](CO)O2)cc1F` was tested, and the outcome was “active; positive”.
`OC(CCl)CCl` was tested, and the outcome was “active; positive”.
With `[O]=[Sb][O][Sb]=[O]` the outcome was “active; positive”.
In the case of `O=C([O-])[O-].O=C([O-])[O-].[OH-].[OH-].[OH-].[OH-].[OH-].[OH-].[Zn+2].[Zn+2].[Zn+2].[Zn+2].[Zn+2]`, the outcome is reported as “active”.
`CNC(=O)Oc1cccc2ccccc12` was tested, and the outcome was “active”.
In the case of `NC(=O)NO`, the outcome is reported as “active; positive”.
With `C=CC(=O)NC(C)(C)C` the outcome was “active; positive”.
For `Cc1ccc(N(C)C)cc1`, the outcome was “active; negative”.
In the case of `C=CC(N)=O`, the outcome is reported as “active; positive”.
For `CC(C)c1ccccc1`, the outcome was “active; positive”.
For `CC(=O)CC(C)=O`, the outcome was “active; positive”.
`CC[C@]1(O)C[C@H]2CN(CCc3c([nH]c4ccccc34)[C@@](C(=O)OC)(c3cc4c(cc3OC)N(C=O)[C@H]3[C@@](O)(C(=O)OC)[C@H](OC(C)=O)[C@]5(CC)C=CCN6CC[C@]43[C@@H]65)C2)C1` was tested, and the outcome was “active”.
With `c1ccoc1` the outcome was “active; positive”.
